The results in this text go back to PubChem BioAssay AID2742 (NMMLSC, 2010).

Structures are written as SMILES. Activity calls are given as the source filed them.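 The calls were made as follows: active = fitted half-maximal concentration for changing background-corrected GFP signal at or below a set limit; inactive = the rest.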

A short description of the experiment: TOR pathway reporter MEP2-GFP, concentration series – S. cerevisiae, flow cytometry GFP, MLPCN hits, dose response (AID 2742).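 Also: GFP tag reports level of MEP2 protein as a downstream target of TOR signalling.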 The conditions noted are these: S. cerevisiae MEP2-GFP strain, flow cytometry fluorescence, 3 h; at 33 µM (top of the series). In general terms: In flow cytometry, cells or beads pass a laser one at a time.
`Cc1ccc(C(c2cc(Cl)c3cccnc3c2O)N2CCN(C)CC2)cc1` (stereo not given): the GFP fluorescence (kMESF), higher = increase is 3.22 kMESF (inactive).

`CCCc1ccc(OCC(=O)NNC(=S)NC(=O)c2ccco2)cc1`: the GFP fluorescence (kMESF), higher = increase is 9.05 kMESF (inactive).

As for `O=[N+]([O-])c1cc(S(=O)(=O)C(F)(F)F)ccc1Sc1nc2ccccc2s1`, the GFP fluorescence (kMESF), higher = increase was 4.67 kMESF (inactive).

As to `COC(CNC(=O)c1ccc2c3c(onc13)-c1ccccc1C2=O)OC`, the GFP fluorescence (kMESF), higher = increase is -0.77 kMESF (inactive).

On to `O=[N+]([O-])c1cc(F)c2cccnc2c1O`, for which the GFP fluorescence (kMESF), higher = increase is 5.96 kMESF (inactive).

With `O=C1NC(=O)N(CCc2ccc(F)cc2)C(=O)/C1=C/c1cccs1`, the GFP fluorescence (kMESF), higher = increase was 4.39 kMESF (inactive).

For `Cc1ccc(S(=O)(=O)ON2C(=O)c3ccccc3C2=O)c(C)c1`, the GFP fluorescence (kMESF), higher = increase is 5.06 kMESF (inactive).

With `Cc1ccccc1N=Nc1ccc(O)c2ncccc12`, the GFP fluorescence (kMESF), higher = increase was 3.51 kMESF (inactive).

Consider `N#C/C(=C\c1ccccn1)c1nc2ccccc2s1`, for which the GFP fluorescence (kMESF), higher = increase was 58.7 kMESF (inactive).

`C#CCOCCOCCOCCNc1nc(N2CCN(C(=O)CCCCCCCCCCNC(=O)[C@H](CCCCN)n3cc(CCCC(=O)O)nn3)CC2)nc(N2CCN(C(=O)CCCCCCCCCCNC(=O)[C@H](CCCN=C(N)N)n3cc(C[C@@H](C)CC)nn3)CC2)n1`: the GFP fluorescence (kMESF), higher = increase was 3.78 kMESF (inactive).

As for `CN(c1ccccc1)c1ccc(/C=c2\s/c(=C(/C#N)C(=O)C(C)(C)C)n(Cc3ccco3)c2=O)cc1`, the GFP fluorescence (kMESF), higher = increase is 13.7 kMESF (inactive).

With `Cc1c(NC2=C(Cl)C(=O)N(c3ccccc3Cl)C2=O)c(=O)n(-c2ccccc2)n1C`, the GFP fluorescence (kMESF), higher = increase was 1.97 kMESF (inactive).

On to `O=C(O)C1Sc2[nH]c(=O)sc2C2c3cc(Br)ccc3OC(=O)C12` (stereo not given), for which the GFP fluorescence (kMESF), higher = increase is 4.8 kMESF (inactive).

For the compound `O=C(COc1ccccc1)NNC(=S)NC(=O)c1ccc(Cl)cc1Cl`, the GFP fluorescence (kMESF), higher = increase was 4.07 kMESF (inactive).

On to `COc1cc(N=c2ssnc2Cl)cc(OC)c1`, for which the GFP fluorescence (kMESF), higher = increase was 4.07 kMESF (inactive).

In the case of `CCc1ccc(C(=O)/C=C/c2ccc([N+](=O)[O-])o2)cc1`, the GFP fluorescence (kMESF), higher = increase was 6.79 kMESF (inactive).

Consider `O=C1C2C3C=CC(CO)(O3)C2C(=O)N1c1ccc(-c2ccccc2)cc1` (stereo not given), for which the GFP fluorescence (kMESF), higher = increase is 4.74 kMESF (inactive).

On to `O=C(OCC(=O)N1CCN(C(=O)c2ccco2)CC1)c1cc(-c2ccc(Cl)c(Cl)c2Cl)nc2ccccc12`, for which the GFP fluorescence (kMESF), higher = increase was 4.51 kMESF (inactive).

As for `CC1=C/C(=N\OS(=O)(=O)c2ccccc2)C(C(C)C)=CC1=O`, the GFP fluorescence (kMESF), higher = increase is 8.38 kMESF (inactive).

Take `Cc1ccc(NN2C(=O)C=C(c3ccc(Cl)cc3)C2=O)cc1`: the GFP fluorescence (kMESF), higher = increase was 4.9 kMESF (inactive).

Take `c1ccc(-c2csc(Nc3cccnc3)n2)nc1`: the GFP fluorescence (kMESF), higher = increase is 1.4 kMESF (inactive).

Consider `O=C(NC(=S)Nc1ccc2oc(=O)ccc2c1)c1cccc(Cl)c1`, for which the GFP fluorescence (kMESF), higher = increase is 1.7 kMESF (inactive).

In the case of `O=C1ON=C(c2ccccc2)/C1=C/c1ccco1`, the GFP fluorescence (kMESF), higher = increase was 4.24 kMESF (inactive).

`Cc1ccc(-c2nc(N)c3c(-c4ccc(C)cc4)nn(C(C)(C)C)c3n2)cc1`: the GFP fluorescence (kMESF), higher = increase is 1.65 kMESF (inactive).

For the compound `CCOc1ccccc1/C=c1\sc2ncnn2c1=O`, the GFP fluorescence (kMESF), higher = increase was 4.47 kMESF (inactive).

As to `Cc1ccc2nc(/C(C#N)=C/c3ccc(O)c(O)c3)[nH]c2c1`, the GFP fluorescence (kMESF), higher = increase was 4.49 kMESF (inactive).

For the compound `CC1=C(C)/C(=N\OS(=O)(=O)c2ccccc2)C=CC1=O`, the GFP fluorescence (kMESF), higher = increase was 4.84 kMESF (inactive).

For `COc1ccc(C(=O)NC(=S)NNC(=O)CCc2ccccc2)cc1`, the GFP fluorescence (kMESF), higher = increase is 3.68 kMESF (inactive).

Consider `CCC(C)/C(C)=N/NC(=O)c1ccc(COc2ccc(Cl)c(C)c2)cc1` (stereo not given), for which the GFP fluorescence (kMESF), higher = increase is 2.48 kMESF (inactive).

With `O=C(OCn1ncc(Br)c(Br)c1=O)c1ccc(F)cc1`, the GFP fluorescence (kMESF), higher = increase is 5.15 kMESF (inactive).

`COc1cc(C=C2C(=O)c3ccccc3C2=O)cc(OC)c1OC`: the GFP fluorescence (kMESF), higher = increase is 2.43 kMESF (inactive).

Consider `Cc1cc(C)c(C)c(S(=O)(=O)ON2C(=O)c3ccccc3C2=O)c1C`, for which the GFP fluorescence (kMESF), higher = increase was 4.23 kMESF (inactive).

In the case of `COC(=O)/C(=C/c1c[nH]c2ccccc12)[N+](=O)[O-]`, the GFP fluorescence (kMESF), higher = increase is 4.87 kMESF (inactive).

For `CC(Oc1ccc(Br)cc1)C(=O)Nc1nc(-c2ccccn2)cs1` (stereo not given), the GFP fluorescence (kMESF), higher = increase is 4.68 kMESF (inactive).

Take `O=C(CCS(=O)(=O)c1ccccc1)Nc1nc(-c2ccccn2)cs1`: the GFP fluorescence (kMESF), higher = increase was 1.34 kMESF (inactive).

Regarding `Cc1nn(C)c(C)c1N1C(=O)c2cccc3c(Br)ccc(c23)C1=O`, the GFP fluorescence (kMESF), higher = increase was 3.61 kMESF (inactive).

As for `CCOC(=O)CSC1=NC(=O)/C(=C/c2ccc(OC)cc2)S1`, the GFP fluorescence (kMESF), higher = increase was 1.26 kMESF (inactive).

For `COc1cc(/C=C2\CC/C(=C\c3cc(OC)c(O)c(OC)c3)C2=O)cc(OC)c1O`, the GFP fluorescence (kMESF), higher = increase is 3.25 kMESF (inactive).

Turning to `O=C(Nc1ccc(O)cc1)C1CCCN1S(=O)(=O)c1ccc(F)cc1` (stereo not given), the GFP fluorescence (kMESF), higher = increase was 1.62 kMESF (inactive).

As for `O=C(Nc1nnc(-c2ccc3c(c2)CCCC3)o1)c1ccc(Cl)cc1Cl`, the GFP fluorescence (kMESF), higher = increase was 3.77 kMESF (inactive).

For `CCOc1ccc(N/N=C(/C#N)C(N)=O)cc1`, the GFP fluorescence (kMESF), higher = increase was 2.43 kMESF (inactive).

Consider `Cc1cc(C)c(OCC(=O)Nc2nc(-c3ccccn3)cs2)c(C)c1`, for which the GFP fluorescence (kMESF), higher = increase was 2.37 kMESF (inactive).

In the case of `Cc1cccc2c1NC(=O)/C2=C\C(=O)c1cccs1`, the GFP fluorescence (kMESF), higher = increase is 4.26 kMESF (inactive).

For `O=C(Sc1cccc2cccnc12)c1ccccc1Br`, the GFP fluorescence (kMESF), higher = increase is 4.93 kMESF (inactive).

`Cc1ccc(C)c(/C=C/C(=O)c2ccccc(=O)c2O)c1`: the GFP fluorescence (kMESF), higher = increase is -0.95 kMESF (inactive).

As for `COCCN1C(=O)/C(=C/c2ccc(N3CCCC3)cc2C)SC1=S`, the GFP fluorescence (kMESF), higher = increase was 7.22 kMESF (inactive).

On to `O=c1[nH]c(-c2ccc(Cl)cc2)cs1`, for which the GFP fluorescence (kMESF), higher = increase is 1.62 kMESF (inactive).

`O=C(Nc1ccc(NC(=O)c2cc3ccccc3o2)cc1)c1ccco1`: the GFP fluorescence (kMESF), higher = increase is 2.1 kMESF (inactive).

Turning to `Nc1c(C(=O)c2cccs2)sc2nsc(SCCN3CCCCC3)c12`, the GFP fluorescence (kMESF), higher = increase is 15.6 kMESF (inactive).

Regarding `C/C(=N/NC(=O)c1ccc(C(C)(C)C)cc1)c1ccccn1`, the GFP fluorescence (kMESF), higher = increase is 5.35 kMESF (inactive).

Turning to `O=C(NCc1ccc2c(c1)OCO2)c1nc(S(=O)(=O)Cc2ccccc2)ncc1Cl`, the GFP fluorescence (kMESF), higher = increase is 2.56 kMESF (inactive).

Take `N/C(Cc1ccc(Cl)c(Cl)c1)=N\OC(=O)c1cccs1`: the GFP fluorescence (kMESF), higher = increase is 3.66 kMESF (inactive).

Regarding `Cc1c(N2C(=O)/C(=C\c3ccccc3O)SC2=S)c(=O)n(-c2ccccc2)n1C`, the GFP fluorescence (kMESF), higher = increase was 4.71 kMESF (inactive).

For `COc1ccc(C2=CC(=O)N(Nc3ccccc3)C2=O)cc1`, the GFP fluorescence (kMESF), higher = increase is 6.84 kMESF (inactive).

Take `O=C1C=C(c2ccccc2)C(=O)N1Nc1ccccc1`: the GFP fluorescence (kMESF), higher = increase was 6.2 kMESF (inactive).

Regarding `O=C1Oc2ccccc2C(=O)/C1=C/c1ccccc1O`, the GFP fluorescence (kMESF), higher = increase is 5.39 kMESF (inactive).

Consider `CC1=C(C)/C(=N\OS(=O)(=O)c2ccc(C)cc2)C=CC1=O`, for which the GFP fluorescence (kMESF), higher = increase was 4.38 kMESF (inactive).

In the case of `COc1ccc(N2C(=O)/C(=C/c3cccs3)C(=O)NC2=S)cc1`, the GFP fluorescence (kMESF), higher = increase was 4.01 kMESF (inactive).

With `CCC(=O)Oc1oc(-c2ccccc2)nc1C=Nc1ccc(C)cc1`, the GFP fluorescence (kMESF), higher = increase was 3.2 kMESF (inactive).

For `Cc1cc(C)c(S(=O)(=O)N2CCC(C(=O)NCc3ccc(Cl)cc3Cl)CC2)c(C)c1`, the GFP fluorescence (kMESF), higher = increase is 4.68 kMESF (inactive).

On to `CCCOc1ccc(C(=O)NNC(=S)NC(=O)c2ccccc2)cc1`, for which the GFP fluorescence (kMESF), higher = increase was 4.61 kMESF (inactive).

As for `CC(=O)Oc1ccc(/C=c2\sc3ncnn3c2=O)cc1`, the GFP fluorescence (kMESF), higher = increase was 3.91 kMESF (inactive).

Regarding `Cc1c(NC2=C(Cl)C(=O)N(c3ccccc3)C2=O)c(=O)n(-c2ccccc2)n1C`, the GFP fluorescence (kMESF), higher = increase is 2.91 kMESF (inactive).

In the case of `Cc1ccc(NC(=O)CCc2ccccc2)cc1S(=O)(=O)N1CCOCC1`, the GFP fluorescence (kMESF), higher = increase is 1.72 kMESF (inactive).

As to `Cc1cccc(C)c1NC(=O)C(Cl)C(=O)c1ccccc1` (stereo not given), the GFP fluorescence (kMESF), higher = increase is 4.47 kMESF (inactive).

In the case of `Cc1ccc(S(=O)(=O)c2ccc([N+](=O)[O-])cn2)cc1`, the GFP fluorescence (kMESF), higher = increase was 5.31 kMESF (inactive).

Turning to `CC(C)[C@]1(c2ccccc2)ON(c2ccccc2C(F)(F)F)C1=O`, the GFP fluorescence (kMESF), higher = increase was 2.87 kMESF (inactive).

For `O=C1c2sc3nc4ccccc4n3c2C(=O)N1c1ccccc1Cl`, the GFP fluorescence (kMESF), higher = increase was 3.06 kMESF (inactive).

Consider `O=C1CCN(S(=O)(=O)c2ccccc2)CCN1CCOCc1ccc(F)cc1`, for which the GFP fluorescence (kMESF), higher = increase was 1.97 kMESF (inactive).

On to `COc1ccc(C(c2c(C)[nH]n(C(N)=S)c2=O)C(C#N)C#N)cc1` (stereo not given), for which the GFP fluorescence (kMESF), higher = increase is 4.93 kMESF (inactive).

Regarding `Cc1ccc(S(=O)(=O)N2CC(C(=O)O)=CC[C@H]2c2ccc(Cl)cc2)cc1`, the GFP fluorescence (kMESF), higher = increase is 3.69 kMESF (inactive).

`O=c1cc(-c2ccccc2)cc(-c2ccccc2)n1O`: the GFP fluorescence (kMESF), higher = increase is 4.49 kMESF (inactive).

With `CCN(CC)C(=O)Oc1ccnc2cc(Cl)ccc12`, the GFP fluorescence (kMESF), higher = increase was 11.7 kMESF (inactive).

Consider `Clc1cccc(CN2COc3c(cc(Cl)c4cccnc34)C2)c1`, for which the GFP fluorescence (kMESF), higher = increase is 8.07 kMESF (inactive).

As for `COc1cc(/C=C2\C(=O)N(CCC#N)N=C2C)c(Br)cc1OC(C)C`, the GFP fluorescence (kMESF), higher = increase was 4.57 kMESF (inactive).
